Laboratory results published in patent US10584119B2, “Pyrazole compounds and methods of use thereof” (TRANSLATIONAL DRUG DEVELOPMENT, LLC, priority 2013, dated 2020).

How the values were obtained:
A498 = assay: CellTiter-Blue cell viability assay, A498 cell line; assay type: cell-based; conditions: Homo sapiens, 72 hour treatment, concentration that inhibits cell growth by 50 percent of control
Method: (§1) Cell viability in the presence of varying concentrations of the above listed compounds at different time points was used to assess cytotoxicity and the effect of the compounds on cell proliferation.
(§2) Cell viability was measured by the CellTiter-Blue® cell viability assay Promega (Madison, Wis.). This procedure measures the conversion of the indicator dye (resazurin) to resorufin, an indicator of cell viability. Following treatment, growth media was removed and cells were incubated with 20 μl of CellTiter-Blue® Reagent and growth media for 1-4 hours at 37° C. Fluorescence values were measured at 535/590 nm using a Beckman-Coulter DTX-880 microplate reader.
(§3) Cells were grown to 70% confluency, trypsinized, counted, and seeded in 96 well flat-bottom plates at a final concentration of 2.5×10^3-5×10^3 cells/well (Day 0). Cells were allowed to incubate in growth media for 24 hours to allow for maximum adhesion. Treatment with the test agents or standard agents began on Day 1 and continued for 72 hours. At the 72 hour timepoint, treatment containing media was removed. Viable cell numbers were quantified by the CellTiter-Blue® cell viability assay as described above. Experiments were repeated at least twice with the same concentrations to determine growth inhibitory activity. Results from these studies were used to calculate an IC50 value (concentration of drug that inhibits cell growth by 50 percent of control) for each compound.
(§4) For single agent and combination studies, data from each experiment were collected and expressed as % Cell Growth using the following calculation: % Cell Growth=(ftest/fvehicle)×100 where ftest is the fluorescence of the tested sample, and fvehicle is the fluorescence of the vehicle in which the drug is dissolved. Dose response graphs and IC50 values were generated using Prism 4 software (GraphPad) using the following equation: Y=(Top−Bottom)/(1+10^((log IC50−X)[…])) where X is the logarithm of concentration and Y is the response. Y starts at the Bottom and goes to Top with a sigmoid shape.

AN3CA = assay: CellTiter-Blue cell viability assay, AN3CA cell line; assay type: cell-based; conditions: Homo sapiens, AN3-CA, 72 hour treatment, concentration that inhibits cell growth by 50 percent of control
Method: as §1, §2, §3, §4

SMILES | IC50 (A498) | IC50 (AN3CA)
Cc1ccc(C(C)C)cc1-c1cc(C(F)(F)F)nn1-c1ccc(S(N)(=O)=O)cc1 [Compound 4] | 1.1 µM | 0.83 µM
Cc1ccc(Br)c(-c2cc(C(F)(F)F)nn2-c2ccc(S(N)(=O)=O)cc2)c1 [Compound 6] | 6.9 µM | 1.5 µM
COc1ccc(C(C)C)cc1-c1cc(C(F)(F)F)nn1-c1ccc(S(N)(=O)=O)cc1 [Compound 7] | 12 µM | 5.8 µM
NS(=O)(=O)c1ccc(-n2nc(C(F)(F)F)cc2-c2cc(-c3ccncc3)ccc2F)cc1 [Compound 20] |  | 3 µM
Cc1cc(-c2ccncc2)cc(-c2cc(C(F)(F)F)nn2-c2ccc(S(N)(=O)=O)cc2)c1 [Compound 22] |  | 1.2 µM
NS(=O)(=O)c1ccc(-n2nc(C(F)(F)F)cc2-c2cccc(-c3ccn[nH]3)c2)cc1 [Compound 34] | 12 µM | 2.1 µM
CN(C)c1ccc(-c2ccn[nH]2)cc1-c1cc(C(F)(F)F)nn1-c1ccc(S(N)(=O)=O)cc1 [Compound 36] |  | 9.1 µM
Cc1ccc(-c2cccnc2)cc1-c1cc(C(F)(F)F)nn1-c1ccc(S(N)(=O)=O)cc1 [Compound 46] | 10 µM | 9.1 µM
Cc1ccc(-c2ccn[nH]2)cc1-c1cc(C2CC2)nn1-c1ccc(S(N)(=O)=O)cc1 [Compound 73] | 7.9 µM | 3.3 µM
Cc1cc(-c2cc(C3CC3)nn2-c2ccc(C(=O)NO)cc2)ccc1Cl [Compound 76] |  | 9 µM
Cc1ccc(Br)cc1-c1cc(C(F)(F)F)nn1-c1ccc(S(N)(=O)=O)cc1 [Example 1] | 11 µM | 7.6 µM
CN(C)c1ccc(Br)cc1-c1cc(C(F)(F)F)nn1-c1ccc(S(N)(=O)=O)cc1 [Example 2] | 1.2 µM | 0.6 µM
Cc1ccc(-c2ccncc2)cc1-c1cc(C(F)(F)F)nn1-c1ccc(S(N)(=O)=O)cc1 [Example 11] | 8.9 µM | 0.01 µM
Cc1ccc(-c2ccn[nH]2)cc1-c1cc(C(F)(F)F)nn1-c1ccc(S(N)(=O)=O)cc1 [Example 12] | 14 µM | 0.04 µM
